Entries after “also recorded” stand apart in the source; their conditions may differ.
How the values were obtained:
[1] = system: MIP2-induced neutrophil emigration; experiment: Intravital microscopy of exteriorized cremaster superfused with MIP2; type: in vivo, mice; settings: 0.5 μg, 1.5 hr pre-treatment; superfusion 60 min
Protocol: Intravital microscopy was performed on male mice, anaesthetized with an intraperitoneal injection of a 10 mg/kg xylazine (Bayer) and 200 mg/kg ketamine hydrochloride (Rogar/STB). The left jugular vein was cannulated to administer additional anaesthetic when necessary. An incision in the scrotal skin exposed the left cremaster muscle, which was then carefully dissected free of the associated fascia. The cremaster muscle was cut longitudinally with a cautery pen. The testicle and the epididymis were then separated from the underlying muscle and were moved into the abdominal cavity. The muscle was held flat on an optically clear viewing pedestal and was secured along the edges with 4-0 suture. The exposed tissue was superfused with 37° C.-warmed bicarbonate-buffered saline (pH 7.4). An upright microscope (Mikron; Carl Zeiss) was used to examine the cremasteric microcirculation and a video camera (XR/MEGA10-AM or XR/MEGA10 Panasonic) and DVD recorder were used to capture images. Three to five cremasteric venules (25 to 40 μm in diameter) were analysed during playback analysis. A leukocyte was considered to be adherent if it remained stationary for at least 30 seconds, and total leukocyte adhesion was quantified as the number of adherent cells within a 100-μm length of venule. […]

[2] = system: neutrophil emigration into the cremaster tissue; experiment: Intravital microscopy of cremaster muscle after intrascrotal injection; type: in vivo, mice; settings: for effect of antagonist pretreatment on LTA and GML inhibition of TNFα-induced neutrophil recruitment: 0.5 μg, 1.5 hr pre-treatment; for inhibitory properties toward LPS-induced neutrophil emigration: LPS 10 ng/g plus ligand 5 ng/g, 4.5 hours; for neutrophil recruitment induced by the ligand itself: wild-type mice, intrascrotal injection, 4.5 hr
Protocol: Intravital microscopy was performed on male mice, anaesthetized with an intraperitoneal injection of a 10 mg/kg xylazine (Bayer) and 200 mg/kg ketamine hydrochloride (Rogar/STB). The left jugular vein was cannulated to administer additional anaesthetic when necessary. An incision in the scrotal skin exposed the left cremaster muscle, which was then carefully dissected free of the associated fascia. The cremaster muscle was cut longitudinally with a cautery pen. The testicle and the epididymis were then separated from the underlying muscle and were moved into the abdominal cavity. The muscle was held flat on an optically clear viewing pedestal and was secured along the edges with 4-0 suture. The exposed tissue was superfused with 37° C.-warmed bicarbonate-buffered saline (pH 7.4). An upright microscope (Mikron; Carl Zeiss) was used to examine the cremasteric microcirculation and a video camera (XR/MEGA10-AM or XR/MEGA10 Panasonic) and DVD recorder were used to capture images. Three to five cremasteric venules (25 to 40 μm in diameter) were analysed during playback analysis. A leukocyte was considered to be adherent if it remained stationary for at least 30 seconds, and total leukocyte adhesion was quantified as the number of adherent cells within a 100-μm length of venule. Leukocyte emigration was defined as the number of cells in the extravascular space within the field of view adjacent to the observed venule.

[3] = system: bone marrow-derived macrophages; experiment: Internalization of FITC-FSL1/GML; type: cell-based, mice
Protocol: Bone marrow-derived macrophages were isolated from wild-type and TLR2−/− mice and cultured on glass coverslips. The cells were incubated on ice for 10 min in the presence of 10 μg/mL FITC-FSL1 or FITC-GML to allow ligands binding and then returned to 37° C. for 60 min. Cells were then fixed for 10 minutes in 4.5% paraformaldehyde and stained for the golgi marker Giantin (1:250, Abcam), and imaged using confocal microscopy.

[4] = severe sepsis; decreased from about 31%; cited from earlier work

Row | Compound | effect of antagonist pretreatment on LTA and GML inhibition of MIP2-induced neutrophil recruitment [1] | effect of antagonist pretreatment on LTA and GML inhibition of TNFα-induced neutrophil recruitment [2] | inhibitory properties toward LPS-induced neutrophil emigration [2] | neutrophil recruitment induced by the ligand itself [2] | further results
1 | O=C(Nc1ccccc1)c1cc([N+](=O)[O-])ccc1Cl [GW9662] | abrogated the inhibitory effect of both LTA and GML | abrogated the inhibitory effect of both LTA and GML | – | – | –
2 | O=C(Nc1ccncc1)c1cc([N+](=O)[O-])ccc1Cl [T0070907] | abrogated the inhibitory effect of both LTA and GML | abrogated the inhibitory effect of both LTA and GML | – | – | –
3 | FSL1 | – | – | – | – | internalization / localization of FITC-labelled ligand ([3]; in the absence of TLR2): substantially inhibited with regard to internalization; localization of internalized FITC-labelled ligand ([3]; wild-type macrophages, 60 min, Giantin stain): much smaller vesicles, which did not co-localize with Giantin
4 | Pam2CSK4 | – | – | did not exhibit any inhibitory properties | pro-inflammatory | –
5 | Pam3CSK4 | – | – | did not exhibit any inhibitory properties | pro-inflammatory; also recorded: causes significant neutrophil recruitment into the cremaster tissue | –
6 | drotrecogin alfa | – | – | – | – | mortality [4]: about 25%

From patent US9422335B2, “Modified toll-like receptor 2 (TLR2) ligands as inhibitors of neutrophil recruitment” (priority 2011, dated 2016)
